Measured values taken from article PMC12264943, “Identification of New Human P2X7 Antagonists Using Ligand- and Structure-Based Virtual Screening” (Journal of Chemical Information and Modeling, 2025).

How the values were obtained:
Assay type in all cases: cell-based
hP2X7 [1] = target: T1, hP2X7 (Homo sapiens, UniProt Q99572); test: Membrane Potential Red (MPR) dye assay, HEK-293 cells stably transfected with hP2X7; conditions: HEK293, 1 mM ATP, hP2X7 HEK-293
T1 construct: expressed in transfected cells; host or cells: HEK-293, stably transfected (gift of E. Adinolfi's group, Ferrara University)
T1 sequence (Q99572 1-595): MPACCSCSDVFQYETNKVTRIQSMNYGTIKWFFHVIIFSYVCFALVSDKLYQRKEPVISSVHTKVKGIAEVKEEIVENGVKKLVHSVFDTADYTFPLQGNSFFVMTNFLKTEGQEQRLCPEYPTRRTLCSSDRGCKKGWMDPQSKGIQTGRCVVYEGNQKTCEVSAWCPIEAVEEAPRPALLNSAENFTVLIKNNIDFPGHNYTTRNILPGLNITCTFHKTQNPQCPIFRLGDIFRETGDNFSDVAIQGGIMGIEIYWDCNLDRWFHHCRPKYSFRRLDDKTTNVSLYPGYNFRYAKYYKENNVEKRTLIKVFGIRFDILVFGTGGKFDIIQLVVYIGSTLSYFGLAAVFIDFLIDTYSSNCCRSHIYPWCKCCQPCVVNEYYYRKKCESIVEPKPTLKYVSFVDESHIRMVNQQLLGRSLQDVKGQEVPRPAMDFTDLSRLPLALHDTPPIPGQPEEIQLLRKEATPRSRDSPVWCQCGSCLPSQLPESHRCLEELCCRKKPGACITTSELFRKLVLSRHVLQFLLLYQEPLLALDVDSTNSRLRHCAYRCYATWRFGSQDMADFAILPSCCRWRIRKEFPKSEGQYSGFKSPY
Method: (§1) Astrocytoma 1321 N1 (established by Dr. Gaia Pasqualetto) and HEK-293 (kindly gifted by E. Adinolfi’s group, Ferrara University) both stably transfected with hP2X7, were used to assess the activity of the small molecules selected from the VS. Cells were maintained in DMEM:F12 (PanBiotech) supplemented with 10% FBS, 1% pen-strep, and 150 μg/mL G418 (PanBiotech).
Cells were plated as described for the YO-PRO 1 dye uptake assay. MPR dye (Molecular Devices) was prepared following the manufacturer’s protocol and diluted 1:10 in ECS-LD buffer. After washing with DPBS, cells were incubated with the dye for 30 min at 37 °C. Fluorescence changes (excitation: 525 nm; emission: 560 nm) were recorded using a Clariostar plate reader during ATP-induced membrane depolarization. Baseline fluorescence was recorded for 5 cycles, and ATP was added via an automated injector (10 μL). Membrane depolarization was quantified as the ratio of the maximal fluorescence change over baseline intensity (Δ(F max–F0)/F0)).
(§2) 4 Evaluation of compound 2 and 9 analogue activity using YO-PRO 1 and MPR assays. The activity of compound 2 (A and B) and 9 (C and D) analogues was evaluated in YO-PRO 1 (A and C) and MPR (B and D) assays. The compounds were tested at 10 μM and preincubated for either 20 (YO-PRO 1) or 30 min (MPR). The baseline was recorded for 5 cycles before ATP treatment (1 mM). Fluorescence was recorded for 25 (YO-PRO 1) or 5 min (MPR). The data were normalized by setting as 100% for the fluorescence measured from hP2X7 HEK-293 cells incubated with vehicle (0.1% DMSO) and treated with 1 mM ATP and 0% for the fluorescence recorded by the cells not treated with ATP. The data shown correspond to three independent biological replicates (3 technical replicates per experiment; error bars represent the SEM from the mean values of each biological replicate (n = 3)). The statistical analysis was performed with one-way Anova using Dunnett’s function (P**** < 0.0001; P*** < 0.0003; P** < 0.002; P* < 0.02).

hP2X7 [2] = target: T1, hP2X7; test: YO-PRO 1 dye uptake assay, HEK-293 cells stably transfected with hP2X7
Method: as §1
Astrocytoma 1321 N1 cells (2–2.5 × 10^4 cells/well) and HEK-293 cells (4–5 × 10^4 cells/well) expressing hP2X7 were seeded in poly-L-lysine-coated 96-well plates (Sarstedt) 24 h before the experiment. YO-PRO 1 dye was prepared at 5 μM in extracellular solution with low divalent cations (ECS-LD) buffer (147 mM NaCl, 10 mM HEPES, 13 mM glucose, 0.2 mM CaCl2, 2 mM KCl, pH 7.4) and added to cells after washing them with Dulbecco’s phosphate- buffered saline (DPBS) (PanBiotech) and incubated for 20 min at 37 °C. ATP-induced dye uptake, mediated by hP2X7 activation, was monitored using a Clariostar plate reader (excitation: 485 nm; emission: 538 nm) for 30 cycles (75–150 s/cycle), after recording the baseline for five cycles. hP2X7 activation was quantified at cycle 10 by calculating the fluorescence intensity (FI) ratio (Δ(Fcycle 10–F cycle 1)/cycle time).
Compounds 2 and 9, identified as hits, were further evaluated for concentration-dependent inhibition (IC50) of hP2X7 activation in the YO-PRO 1 dye uptake assay using HEK-293 cells stably transfected with hP2X7 (unfortunately, at this point in the study, the stably transfected 1321N1 cells lost P2X7 expression, and we were unable to recover them from frozen aliquots), for which the ATP EC50 was determined to be approximately 1 mM (Supporting material Figure 4C). Seven concentrations (100 to 0.03 μM) were tested, but due to precipitation at 100 μM, the DMSO concentration was increased to 1%.
3 Inhibitory concentration response evaluation of compounds 2 and 9 and their groups highlighted for SAR. […] Compound activity was evaluated along a time of 20 min (75 s per cycle) after ATP addition (700 μM). The fluorescence intensity (FI) values of the first 10 cycles were considered for assessing their ability to inhibit hP2X7. The curves represent three biological replicates (n = 4 per replicate). Data were normalized by setting as 100% the FI recorded by hP2X7 HEK-293 cells incubated in 1% DMSO and stimulated by ATP, and as 0% the FI recorded by the same cells but treated with ECS-LD (assay buffer). (C) Highlighted areas of compound 2 considered for SAR study. R1 refers to the ethyl-benzyl group of the molecules, and R2 and R3 refer to the benzo-(1,3)-dioxol groups. (D) Highlighted areas of compound 9 considered for SAR study. We have defined the area highlighted in yellow and numbered as 1 as the “front” region of the molecule and the one colored in pink and named as 2 as the “back” region of the molecule. L highlights the urea and amide linkers of compounds 2 and 9, respectively.
as §2

HEK-293 WT cells = test: Cytotoxicity assay (CellTiter Blue); conditions: 10 μM, 24 h, nontransfected HEK-293 cells
Method: HEK-293 WT cells were seeded at 4 × 10^4 cells/well in 96-well plates precoated with poly-L-lysine. After 24 h, the cells were washed with DPBS and treated with test compounds (10 μM) in 2% FBS-containing medium for 24 h. After this, the medium containing the test compounds was replaced with 20% CellTiter-Blue reagent (Promega) in 2% FBS medium. After a 2-h incubation, fluorescence (excitation: […]; emission: […]) was measured using a Clariostar plate reader. Data were normalized to untreated control cells (100%) and wells without cells (0%).
5 Concentration inhibition curve determination for compound 2g (A) and evaluation of cytotoxicity for compounds 2, 9, and 2g. […] The data on the graph represent the mean from three independent experiments (n = 3 replicates per experiment). (B) The cytotoxicity of the compounds was evaluated on nontransfected HEK-293 cells using a CellTiter Blue assay. The cells were incubated for 24 h with the compounds at 10 μM. The fluorescent signal obtained from vehicle-treated cells (0.1% DMSO) was used to normalize the data to 100%, and the one obtained from wells not containing cells (BLANK) was set as 0%. The data are the combination of three biological replicates (error bars represent the SEM (n = 3)) analyzed by one-way ANOVA using Dunnet’s function (P**** < 0.0001; **< 0.002; * < 0.02; ns, non significant).
The potential cytotoxicity of the hit compounds identified, 2, 9, and 2g, was assessed at 10 μM by CellTiter Blue assay using nontransfected HEK-293 cells (Figure B).

inhibition at 10 µM (hP2X7 [1]): 70%
IC50 (hP2X7 [2]; YO-PRO 1 dye uptake, hP2X7 HEK-293 cells, 100 to 0.03 μM, 1% DMSO, read-out: IC50, inhibition of hP2X7 activation): 1310 nM
reduction of hP2X7 activity (hP2X7 [2]; analogues at 10 μM, YO-PRO 1, 1 mM ATP, 0.1% DMSO): 80%
Structure (SMILES): O=C(Nc1ccc2c(c1)OCO2)NC(Cc1ccc(F)cc1)Cc1ccc(F)cc1 [Compound 2g]
hP2X7 inhibition in YO-PRO 1 dye uptake, SAR (hP2X7 [2]; analogues at 10 μM, 1 mM ATP): retained potency comparable to that of the hit compound
reduction in cell viability (HEK-293 WT cells): ~10%
